The text below walks through data of US9457081B2, “Combination therapy using c-Met inhibitor and beta-catenin inhibitor” (Samsung Electronics Co., Ltd., priority 2013, dated 2016).

Holding throughout (type): cell-based
For one assay, the system named is HCC1954 cells. Put plainly: HCC1954 cell proliferation with beta-catenin siRNA reverse transfection. The note with it: c-Met inhibitor treated alone (L3-1Y/IgG2 0-2 μg/ml; crizotinib 0-20 nM), 72 hours. From the text:
(§1) To confirm the effect of co-administration of c-Met inhibitor (anti-c-Met antibody L3-1Y/IgG2 or crizotinib) and beta-catenin siRNA in a cancer cell on which a c-Met inhibitor has no effect when administered alone, a breast cancer cell line HCC1954 (ATCC, CRL 2338) and a kidney cancer cell line Caki-1 (ATCC) were used for assaying the effect of the co-administration.
(§2) In particular, in 96-well plate, beta-catenin siRNA (Dharmacon, SMARTpool) was subjected to reverse transfection into 5000 cells/well of HCC1954 cell or Caki-1 cell and the cells were incubated (medium: 10% FBS in RPMI 1640 (GIBCO), incubation temperature: 37° C.). […] The number of the cells was counted through luminescence signal, and the luminescence signal was recorded using Envision 2104 Multi-label Reader (Perkin Elmer).

The next assay deals with HT-29 cells. Put plainly: HT-29 cell proliferation / viability (CellTiter Glo luminescence). As to conditions: crizotinib administered alone, 0-20 nM, 72 hours. As to the method:
To confirm the effect of co-administration in a colon cancer cell on which an anti-c-Met antibody has no effect when administered alone, HT-29 (ATCC, HTB-38) cells were used for assaying the effect of co-administration on cell proliferation.
In particular, 5000 cells of HT-29 cell were incubated in 96-well plate (medium: 10% FBS in RPMI 1640 (GIBCO), incubation temperature: 37° C.). 24 hours after, the incubated cells were treated with L3-1Y/IgG2 prepared in reference example or anti-c-Met antibody 1 (heavy chain: SEQ ID NO: 109; light chain: SEQ ID NO: 110) and beta-catenin inhibitor XAV-939 (Selleck chemical). In particular, 72 hours after the antibody treatment, 100 uL of CellTiter Glo solution (Promega, G7572) was added to each well and left at room temperature for 30 minutes. The number of the cells was counted through luminescence signal, and the luminescence signal was recorded using Envision 2104 Multi-label Reader (Perkin Elmer). In the experiment, L3-1Y/IgG2 was used at the amount of 0, 0.016, 0.08, 0.4, and 2 μg/ml, and XAV-939 was used at the fixed amount of 5 uM. […]
In particular, 5000 cells of HT-29 cell were incubated in 96-well plate (medium: 10% FBS in RPMI 1640 (GIBCO), incubation temperature: 37° C.). […] The number of the cells was counted through luminescence signal, and the luminescence signal was recorded using Envision 2104 Multi-label Reader (Perkin Elmer). […]

The next assay relates to Lovo cells. Put plainly: Lovo cell proliferation (CellTiter Glo luminescence). As to conditions: Lovo (FIG. 5); crizotinib administered alone; 72 hours. As to the method: To confirm the effect of co-administration in a colon cancer cell on which a c-Met inhibitor has no effect when administered alone, Lovo (ATCC, CCL-229) cells were used for assaying the effect of co-administration on cell proliferation.
In particular, 5000 cells of Lovo cell were incubated in 96-well plate (medium: 10% FBS in RPMI 1640 (GIBCO), incubation temperature: 37° C.). 24 hours after, the incubated cells were treated with a small molecular compound inhibiting c-Met, crizotinib (Selleck chemical) and beta-catenin inhibitor XAV-939 (Selleck chemical). In particular, 72 hours after the antibody treatment, 100 uL of CellTiter Glo solution (Promega, G7572) was added to each well and left at room temperature for 30 minutes. The number of the cells was counted through luminescence signal, and the luminescence signal was recorded using Envision 2104 Multi-label Reader (Perkin Elmer). In the experiment, L3-1Y/IgG2 was used at the amount of 0, 0.016, 0.08, 0.4, and 2 μg/ml, and XAV-939 was used at the fixed amount of 5 uM.
On the technique in general: ATP-based viability assays read luminescence as a measure of living cells.

In another assay the test system is Caki-1 cells. Put plainly: Caki-1 cell proliferation with beta-catenin siRNA reverse transfection. The note with it: c-Met inhibitor treated alone (L3-1Y/IgG2 0-2 μg/ml; crizotinib 0-20 nM), 72 hours.
Source text: as §1, §2

On to `C[C@@H](Oc1cc(-c2cnn(C3CCNCC3)c2)cnc1N)c1c(Cl)ccc(F)c1Cl` [crizotinib, 3-[(1R)-1-(2,6-dichloro-3-fluorophenyl)ethoxy]-5-(1-piperidin-4-ylpyrazol-4-yl)pyridin-2-amine, reference compound], for which the “cell proliferation inhibition effect” value in the assay on HCC1954 cells, in the assay on HT-29 cells, in the assay with Lovo cells and in the assay on Caki-1 cells was “no cell proliferation inhibition effect is observed” throughout.
